Laboratory results: the supplement of paper PMC10307832

What was measured:
Test in all cases: relative viability (nuclei count vs DMSO), 5 days (fraction); higher = more cells survive
[1] = compound: C/C(=N\NC(=S)N1CCC1)/C2=CC=CC=N2 + CC(C)C[C@H](NC(=O)[C@H](Cc1ccccc1)NC(=O)c1cnccn1)B(O)O [Bortezomib] (partner 0.002 µM)
In short: (§1)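 Lung cancer cell lines were seeded in 1536-well plates and dosed by pin tool the next day, with either a single drug or a fixed anchor-drug dose combined with five library-drug doses (not always all listed) spaced in √10 steps. Five days later, one step fixed the cells and stained their nuclei (final 0.05% Triton X-100, 1% formaldehyde, 1 ug/ml Hoechst), and nuclei were counted on 4× images. Relative viability is the nuclei count in treated wells divided by the count in vehicle wells, and each value is the median of duplicate plates.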

[2] = compound: C/C(=N\NC(=S)N1CCC1)/C2=CC=CC=N2 + CS(=O)(=O)CCNCc1ccc(-c2ccc3ncnc(Nc4ccc(OCc5cccc(F)c5)c(Cl)c4)c3c2)o1 [Lapatinib] (partner 2 µM)
In short: as §1

[3] = compound: C/C(=N\NC(=S)N1CCC1)/C2=CC=CC=N2 + NC(=O)Nc1cc(-c2cccc(F)c2)sc1C(=O)N[C@H]1CCCNC1 [AZD7762] (partner 0.2 µM)
In short: as §1

[4] = compound: C/C(=N\NC(=S)N1CCC1)/C2=CC=CC=N2 + Nc1ncn([C@H]2C[C@H](O)[C@@H](CO)O2)c(=O)n1 [Decitabine] (partner 2 µM)
In short: as §1

| Cell Line | relative viability ([1]; first compound 0.05 µM) | relative viability ([1]; first compound 0.1581 µM) | relative viability ([1]; first compound 0.5 µM) | relative viability ([1]; first compound 1.581 µM) | relative viability ([1]; first compound 5 µM) | relative viability ([2]; first compound 0.05 µM) | relative viability ([2]; first compound 0.1581 µM) | relative viability ([2]; first compound 0.5 µM) | relative viability ([2]; first compound 1.581 µM) | relative viability ([2]; first compound 5 µM) | relative viability ([3]; first compound 0.05 µM) | relative viability ([3]; first compound 0.1581 µM) | relative viability ([3]; first compound 0.5 µM) | relative viability ([3]; first compound 1.581 µM) | relative viability ([3]; first compound 5 µM) | relative viability ([4]; first compound 0.05 µM) | relative viability ([4]; first compound 0.1581 µM) | relative viability ([4]; first compound 0.5 µM) | relative viability ([4]; first compound 1.581 µM) | relative viability ([4]; first compound 5 µM) |
| --- | --- | --- | --- | --- | --- | --- | --- | --- | --- | --- | --- | --- | --- | --- | --- | --- | --- | --- | --- | --- |
| NCI-H1975 | 0.15 | 0.144 | 0.134 | 0.147 | 0.156 | 0.132 | 0.151 | 0.147 | 0.13 | 0.15 | 0.308 | 0.239 | 0.225 | 0.234 | 0.24 | 0.151 | 0.18 | 0.154 | 0.156 | 0.184 |
| NCI-H1993 | 0.431 | 0.506 | 0.463 | 0.406 | 0.483 | 0.59 | 0.634 | 0.619 | 0.58 | 0.543 | 0.302 | 0.372 | 0.387 | 0.373 | 0.317 | 0.42 | 0.497 | 0.342 | 0.431 | 0.381 |
| NCI-H2085 | 0.33 | 0.298 | 0.323 | 0.269 | 0.262 | 0.341 | 0.365 | 0.335 | 0.271 | 0.325 | 0.263 | 0.278 | 0.293 | 0.223 | 0.271 | 0.255 | 0.324 | 0.358 | 0.309 | 0.376 |
| NCI-H2087 | 0.219 | 0.223 | 0.309 | 0.132 | 0.125 | 0.196 | 0.268 | 0.224 | 0.195 | 0.143 | 0.193 | 0.16 | 0.249 | 0.118 | 0.15 | 0.136 | 0.0973 | 0.107 | 0.103 | 0.0802 |
| NCI-H2126 | 0.364 | 0.244 | 0.223 | 0.201 | 0.186 | 0.242 | 0.272 | 0.249 | 0.236 | 0.241 | 0.2 | 0.19 | 0.214 | 0.189 | 0.157 | 0.292 | 0.599 | 0.222 | 0.226 | 0.247 |
| NCI-H2347 | 0.299 | 0.329 | 0.401 | 0.268 | 0.263 | 0.401 | 0.394 | 0.324 | 0.294 | 0.541 | 0.192 | 0.235 | 0.218 | 0.198 | 0.244 | 0.363 | 0.335 | 0.34 | 0.349 | 0.367 |
| NCI-H2405 | 0.275 | 0.31 | 0.322 | 0.286 | 0.989 | 0.251 | 0.236 | 0.263 | 0.25 | 0.281 | 0.215 | 0.245 | 0.253 | 0.186 | 0.23 | 0.284 | 0.246 | 0.24 | 0.239 | 0.246 |
| NCI-H3122 | 0.17 | 0.139 | 0.222 | 0.244 | 0.203 | 0.304 | 0.284 | 0.268 | 0.291 | 0.243 | 0.0944 | 0.0773 | 0.115 | 0.13 | 0.114 | 0.0981 | 0.269 | 0.086 | 0.127 | 0.136 |
| PC-3 [JPC-3] | 0.377 | 0.318 | 0.312 | 0.292 | 0.215 | 0.267 | 0.27 | 0.259 | 0.228 | 0.229 | 0.317 | 0.384 | 0.307 | 0.243 | 0.234 | 0.534 | 0.526 | 0.418 | 0.344 | 0.324 |
| PC-14 | 0.114 | 0.106 | 0.0629 | 0.0768 | 0.0781 | 0.11 | 0.112 | 0.124 | 0.0912 | 0.0865 | 0.08 | 0.12 | 0.106 | 0.0559 | 0.0985 | 0.0702 | 0.088 | 0.0592 | 0.0503 | 0.0468 |
| RERF-LC-KJ | 0.256 | 0.298 | 0.304 | 0.243 | 0.267 | 0.258 | 0.263 | 0.23 | 0.253 | 0.275 | 0.176 | 0.238 | 0.18 | 0.16 | 0.208 | 0.234 | 0.235 | 0.215 | 0.283 | 0.247 |
